Assays:
PI3K alpha = PI3K alpha (Homo sapiens (Human), UniProt P42336); test: Enzymatic PI3K alpha isoform inhibition (lipid kinase activity, Kinase-Glo luminescence); assay type: biochemical; conditions: Enzymatic assay
Summary of the method: (§1)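 IC50s derive from 4-parameter logistic fits of % inhibition across 8 concentrations (usually 10 to 0.003 μM). Lipid kinase reaction: PI3K (10 nM) plus phosphatidylinositol (5 μg/mL) started with 2 μM ATP, stopped near 50% ATP depletion; leftover ATP quantified by Kinase-Glo luminescence.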

PI3K delta = PI3K delta (Homo sapiens (Human), UniProt O00329); test: Enzymatic PI3K delta isoform inhibition (lipid kinase activity, Kinase-Glo luminescence); assay type: biochemical; conditions: Enzymatic assay
Summary of the method: as §1

PI3K delta, sequence (O00329 other isoform, or with tags, fused parts or gaps linker GGGGGG): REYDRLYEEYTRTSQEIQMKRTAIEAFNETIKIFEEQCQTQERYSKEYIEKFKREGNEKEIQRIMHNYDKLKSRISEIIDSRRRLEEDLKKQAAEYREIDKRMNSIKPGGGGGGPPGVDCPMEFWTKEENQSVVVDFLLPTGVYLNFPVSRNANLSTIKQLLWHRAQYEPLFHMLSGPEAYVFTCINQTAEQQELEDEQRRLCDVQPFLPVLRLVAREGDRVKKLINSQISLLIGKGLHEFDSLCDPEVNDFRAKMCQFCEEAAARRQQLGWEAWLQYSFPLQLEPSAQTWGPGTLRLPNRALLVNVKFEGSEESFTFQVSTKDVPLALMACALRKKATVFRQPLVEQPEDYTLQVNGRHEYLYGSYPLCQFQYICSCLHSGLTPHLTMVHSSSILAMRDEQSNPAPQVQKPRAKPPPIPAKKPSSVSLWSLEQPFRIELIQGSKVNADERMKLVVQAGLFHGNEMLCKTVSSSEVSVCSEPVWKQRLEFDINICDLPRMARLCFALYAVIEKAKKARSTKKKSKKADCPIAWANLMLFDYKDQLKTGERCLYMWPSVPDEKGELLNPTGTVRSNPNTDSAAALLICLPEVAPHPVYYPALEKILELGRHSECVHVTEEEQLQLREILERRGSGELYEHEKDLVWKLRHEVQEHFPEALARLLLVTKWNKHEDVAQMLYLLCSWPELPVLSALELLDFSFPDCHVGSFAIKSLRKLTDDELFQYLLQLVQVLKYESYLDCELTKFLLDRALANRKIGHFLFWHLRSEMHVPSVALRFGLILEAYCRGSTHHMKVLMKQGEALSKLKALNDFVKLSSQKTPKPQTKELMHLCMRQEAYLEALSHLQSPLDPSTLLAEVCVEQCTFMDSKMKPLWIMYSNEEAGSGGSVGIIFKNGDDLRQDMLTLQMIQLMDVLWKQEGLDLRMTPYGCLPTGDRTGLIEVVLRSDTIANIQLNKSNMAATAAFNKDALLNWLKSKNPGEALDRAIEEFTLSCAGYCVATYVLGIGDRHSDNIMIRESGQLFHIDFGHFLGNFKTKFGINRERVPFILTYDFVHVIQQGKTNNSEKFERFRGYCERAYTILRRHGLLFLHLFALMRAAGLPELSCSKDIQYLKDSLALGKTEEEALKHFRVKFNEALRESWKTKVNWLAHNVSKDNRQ
PI3K alpha, sequence (P42336 other isoform, or with tags, fused parts or gaps): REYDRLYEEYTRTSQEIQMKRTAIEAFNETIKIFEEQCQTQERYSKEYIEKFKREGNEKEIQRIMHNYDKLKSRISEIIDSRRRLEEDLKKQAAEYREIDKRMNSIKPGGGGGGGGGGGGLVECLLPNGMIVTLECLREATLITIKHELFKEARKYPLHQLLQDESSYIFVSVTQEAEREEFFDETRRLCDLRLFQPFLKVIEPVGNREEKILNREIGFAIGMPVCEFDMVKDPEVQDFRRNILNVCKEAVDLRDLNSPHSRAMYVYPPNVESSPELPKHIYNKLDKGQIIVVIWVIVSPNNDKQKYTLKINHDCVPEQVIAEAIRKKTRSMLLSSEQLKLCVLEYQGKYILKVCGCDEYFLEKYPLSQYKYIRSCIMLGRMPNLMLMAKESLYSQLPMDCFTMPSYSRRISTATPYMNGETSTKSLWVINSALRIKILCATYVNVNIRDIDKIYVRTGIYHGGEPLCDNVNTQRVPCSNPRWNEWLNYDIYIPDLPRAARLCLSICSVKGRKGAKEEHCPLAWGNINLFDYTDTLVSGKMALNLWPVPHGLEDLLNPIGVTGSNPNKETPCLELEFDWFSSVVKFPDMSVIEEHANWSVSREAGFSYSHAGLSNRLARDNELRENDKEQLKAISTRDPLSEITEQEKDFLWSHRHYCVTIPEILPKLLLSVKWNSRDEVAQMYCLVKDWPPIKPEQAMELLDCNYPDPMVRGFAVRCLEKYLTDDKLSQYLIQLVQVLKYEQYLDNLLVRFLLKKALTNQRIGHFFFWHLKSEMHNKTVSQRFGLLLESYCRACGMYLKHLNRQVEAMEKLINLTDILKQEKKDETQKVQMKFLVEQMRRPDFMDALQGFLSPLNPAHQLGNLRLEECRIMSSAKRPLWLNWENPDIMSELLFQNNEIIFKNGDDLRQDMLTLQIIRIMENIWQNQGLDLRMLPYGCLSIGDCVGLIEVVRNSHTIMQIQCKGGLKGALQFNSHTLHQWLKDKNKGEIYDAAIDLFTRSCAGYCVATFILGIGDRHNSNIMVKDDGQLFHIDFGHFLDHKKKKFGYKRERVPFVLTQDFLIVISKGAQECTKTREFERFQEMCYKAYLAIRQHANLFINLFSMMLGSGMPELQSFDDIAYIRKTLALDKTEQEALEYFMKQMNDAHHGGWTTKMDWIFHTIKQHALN

SMILES	IC50 (PI3K alpha)	IC50 (PI3K delta)
Cc1cc(N2CCOc3ccc(O[C@H]4CCN(C(=O)C(C)C)C4)cc32)cnc1S(C)(=O)=O [Example B33, 1-{(S)-3-[4-(6-Methanesulfonyl-5-methyl-pyridin-3-yl)-3,4-dihydro-2H-benzo[1,4]oxazin-6-yloxy]-pyrrolidin-1-yl}-2-methyl-propan-1-one]	610 nM	< 9 nM
COc1ncc(N2CCOc3ccc(O[C@H]4CCN(C(=O)C5CCS(=O)(=O)CC5)C4)cc32)cc1F [Example B11, (1,1-Dioxo-hexahydro-1lambda*6*-thiopyran-4-yl)-{(S)-3-[4-(5-fluoro-6-methoxy-pyridin-3-yl)-3,4-dihydro-2H-benzo[1,4]oxazin-6-yloxy]-pyrrolidin-1-yl}-methanone]	823 nM	14 nM
CS(=O)(=O)c1ncc(N2CCOc3ccc(O[C@H]4CCN(C(=O)C5CCOCC5)C4)cc32)cc1CF [Example B71, {(S)-3-[4-(5-Fluoromethyl-6-methanesulfonyl-pyridin-3-yl)-3,4-dihydro-2H-benzo[1,4]oxazin-6-yloxy]-pyrrolidin-1-yl}-(tetrahydro-pyran-4-yl)-methanone]	360 nM	5.5 nM
Cc1cc(N2CCOc3ccc(O[C@H]4CCN(C(=O)C5CCOCC5)C4)cc32)ccn1 [Example A19, {(S)-3-[4-(2-Methyl-pyridin-4-yl)-3,4-dihydro-2H-benzo[1,4]oxazin-6-yloxy]-pyrrolidin-1-yl}-(tetrahydro-pyran-4-yl)-methanone]	7550 nM	380 nM
Cc1cc(N2CCOc3ccc(O[C@H]4CCN(S(=O)(=O)C5CC5)C4)cc32)cnc1S(C)(=O)=O [Example B83, 6-((S)-1-Cyclopropanesulfonyl-pyrrolidin-3-yloxy)-4-(6-methanesulfonyl-5-methyl-pyridin-3-yl)-3,4-dihydro-2H-benzo[1,4]oxazine]	214 nM	29 nM
COCCC(=O)N1CC[C@H](Oc2ccc3c(c2)N(c2cnc(OC)c(OC)c2)CCO3)C1 [Example B46, 1-{(S)-3-[4-(5,6-Dimethoxy-pyridin-3-yl)-3,4-dihydro-2H-benzo[1,4]oxazin-6-yloxy]-pyrrolidin-1-yl}-3-methoxy-propan-1-one]	2080 nM	226 nM
Cc1cc(N2CCOc3ccc(O[C@H]4CCN(C(=O)C5CCOCC5)C4)c(C)c32)cnc1S(C)(=O)=O [W, {(S)-3-[4-(6-Methanesulfonyl-5-methyl-pyridin-3-yl)-5-methyl-3,4-dihydro-2H-benzo[1,4]oxazin-6-yloxy]-pyrrolidin-1-yl}-(tetrahydro-pyran-4-yl)-methanone]	2980 nM	56 nM
CCC(=O)N1CC[C@H](Oc2ccc3c(c2)N(c2cncc(S(=O)(=O)N4CCOCC4)c2)CCO3)C1 [Example A26, 1-((S)-3-{4-[5-(Morpholine-4-sulfonyl)-pyridin-3-yl]-3,4-dihydro-2H-benzo[1,4]oxazin-6-yloxy}-pyrrolidin-1-yl)-propan-1-one]	152 nM	22 nM
Cc1cc(N2CCOc3ccc(O[C@H]4CCN(C(=O)[C@H]5CC[C@H](O)CC5)C4)cc32)cnc1S(C)(=O)=O [Example B50, (4-Hydroxy-cyclohexyl)-{(S)-3-[4-(6-methanesulfonyl-5-methyl-pyridin-3-yl)-3,4-dihydro-2H-benzo[1,4]oxazin-6-yloxy]-pyrrolidin-1-yl}-methanone]	933 nM	13 nM
COc1cc(N2CCOc3ccc(O[C@H]4CCN(C(=O)C5CCS(=O)(=O)C5)C4)cc32)cnc1OC (stereo partly drawn) [Example B41, {(S)-3-[4-(5,6-Dimethoxy-pyridin-3-yl)-3,4-dihydro-2H-benzo[1,4]oxazin-6-yloxy]-pyrrolidin-1-yl}-(1,1-dioxo-tetrahydro-1lambda*6*-thiophen-3-yl)-methanone]	421 nM	25 nM
COc1ncc(N2CCOc3ccc(O[C@H]4CCN(C(=O)c5cocn5)C4)cc32)cc1F [Example B100, {(S)-3-[4-(5-Fluoro-6-methoxy-pyridin-3-yl)-3,4-dihydro-2H-benzo[1,4]oxazin-6-yloxy]-pyrrolidin-1-yl}-oxazol-4-yl-methanone]	567 nM	14 nM
CCC(=O)N1CC[C@H](Oc2ccc3c(c2)N(c2ccc(OC)c(S(=O)(=O)N(C)C)c2)CCO3)C1 [Example A15, 2-Methoxy-N,N-dimethyl-5-[6-((S)-1-propionyl-pyrrolidin-3-yloxy)-2,3-dihydro-benzo[1,4]oxazin-4-yl]-benzenesulfonamide]	4890 nM	184 nM
CCC(=O)N1CC[C@H](Oc2ccc3c(c2)N(c2cncc(C#N)c2)CCO3)C1 [Example A32, 5-[6-((S)-1-Propionyl-pyrrolidin-3-yloxy)-2,3-dihydro-benzo[1,4]oxazin-4-yl]-nicotinonitrile]	3200 nM	74 nM
COc1cc(N2CCOc3ccc(O[C@H]4CCN(C(=O)CCO)C4)cc32)cnc1Cl [Example B57, 1-{(S)-3-[4-(6-Chloro-5-methoxy-pyridin-3-yl)-3,4-dihydro-2H-benzo[1,4]oxazin-6-yloxy]-pyrrolidin-1-yl}-3-hydroxy-propan-1-one]	2270 nM	95 nM
CCS(=O)(=O)N1CC[C@H](Oc2ccc3c(c2)N(c2cnc(S(C)(=O)=O)c(C)c2)CCO3)C1 [Example B84, 6-((S)-1-Ethanesulfonyl-pyrrolidin-3-yloxy)-4-(6-methanesulfonyl-5-methyl-pyridin-3-yl)-3,4-dihydro-2H-benzo[1,4]oxazine]	346 nM	80 nM
CCC(=O)N1CC[C@H](Oc2ccc3c(c2)N(c2ccc([S+]([O-])CC)nc2)CCO3)C1 (stereo partly drawn) [Example B121, 1-{(S)-3-[4-(6-Ethanesulfinyl-pyridin-3-yl)-3,4-dihydro-2H-benzo[1,4]oxazin-6-yloxy]-pyrrolidin-1-yl}-propan-1-one]	3360 nM	75 nM
CC(C)S(=O)(=O)c1cncc(N2CCOc3ccc(O[C@H]4CCN(C(=O)C5CCS(=O)(=O)CC5)C4)cc32)c1 [Example B29, (1,1-Dioxo-hexahydro-1lambda*6*-thiopyran-4-yl)-((S)-3-{4-[5-(propane-2-sulfonyl)-pyridin-3-yl]-3,4-dihydro-2H-benzo[1,4]oxazin-6-yloxy}-pyrrolidin-1-yl)-methanone]	558 nM	41 nM
COc1ncc(N2CCOc3ccc(O[C@H]4CCN(C(=O)CCO)C4)cc32)cc1F [Example B113, 1-{(S)-3-[4-(5-Fluoro-6-methoxy-pyridin-3-yl)-3,4-dihydro-2H-benzo[1,4]oxazin-6-yloxy]-pyrrolidin-1-yl}-3-hydroxy-propan-1-one]	2730 nM	109 nM
Cn1cnc(C(=O)N2CC[C@H](Oc3ccc4c(c3)N(c3cnc(S(C)(=O)=O)c(C(F)F)c3)CCO4)C2)c1 [Example B74]	54 nM	9 nM

Continued, values first:

IC50 (PI3K alpha)	IC50 (PI3K delta)	SMILES
560 nM	3 nM	COc1ncc(N2CCOc3ccc(O[C@H]4CCN(C(=O)C5COCCO5)C4)cc32)cc1C#N (stereo partly drawn) [Example C24, 5-{6-[(S)-1-([1,4]Dioxane-2-carbonyl)-pyrrolidin-3-yloxy]-2,3-dihydro-benzo[1,4]oxazin-4-yl}-2-methoxy-nicotinonitrile]
444 nM	25 nM	COc1ncc(N2CCOc3cnc(O[C@H]4CCN(C(=O)c5cn(C)cn5)C4)cc32)cc1C#N [Example F5, 2-Methoxy-5-{7-[(S)-1-(1-methyl-1H-imidazole-4-carbonyl)-pyrrolidin-3-yloxy]-2,3-dihydro-pyrido[3,4-b][1,4]oxazin-1-yl}-nicotinonitrile]
534 nM	3 nM	COc1ncc(N2CCOc3ccc(O[C@H]4CCN(C(=O)C5CCOC5)C4)cc32)cc1C#N (single isomer, unassigned) [Example D29]
2530 nM	214 nM	CCC(=O)N1C[C@@H](Oc2ccc3c(c2)N(c2cnc(OC)c(C#N)c2)CCO3)CO1 [Example D23, 2-Methoxy-5-[6-((R)-2-propionyl-isoxazolidin-4-yloxy)-2,3-dihydro-benzo[1,4]oxazin-4-yl]-nicotinonitrile]
387 nM	9 nM	COc1ncc(N2CCOc3ccc(O[C@H]4CCN(C(=O)C5CCS(=O)(=O)C5)C4)cc32)cc1Cl (single isomer, unassigned) [Example H13]
281 nM	19 nM	COc1ncc(N2CCOc3ccc(O[C@H]4CCN(C(=O)c5cocn5)C4)cc32)cc1C#N [Example D18, 2-Methoxy-5-{6-[(S)-1-(oxazole-4-carbonyl)-pyrrolidin-3-yloxy]-2,3-dihydro-benzo[1,4]oxazin-4-yl}-nicotinonitrile]
94 nM	9 nM	COc1ncc(N2CCOc3ccc(O[C@H]4CCN(C(=O)c5cnco5)C4)cc32)cc1C#N [Example D32, 2-Methoxy-5-{6-[(S)-1-(oxazole-5-carbonyl)-pyrrolidin-3-yloxy]-2,3-dihydro-benzo[1,4]oxazin-4-yl}-nicotinonitrile]
374 nM	13 nM	COc1ncc(N2CCOc3ccc(O[C@H]4CCN(C(=O)c5ccnn5C)C4)cc32)cc1C#N [Example C8, 2-Methoxy-5-{6-[(S)-1-(2-methyl-2H-pyrazole-3-carbonyl)-pyrrolidin-3-yloxy]-2,3-dihydro-enzo[1,4]oxazin-4-yl}-nicotinonitrile]
802 nM	42 nM	COc1ncc(N2CCOc3ccc(O[C@H]4CCN(C(=O)C5CCN(C(C)=O)CC5)C4)cc32)cc1C#N [Example D5, 5-{6-[(S)-1-(1-Acetyl-piperidine-4-carbonyl)-pyrrolidin-3-yloxy]-2,3-dihydro-benzo[1,4]oxazin-4-yl}-2-methoxy-nicotinonitrile]
478 nM	15 nM	COc1ncc(N2CCOc3ccc(O[C@H]4CCN(C(=O)c5cccnc5)C4)cc32)cc1C#N [Example C16, 2-Methoxy-5-{6-[(S)-1-(pyridine-3-carbonyl)-pyrrolidin-3-yloxy]-2,3-dihydro-benzo[1,4]oxazin-4-yl}-nicotinonitrile]

From US9539260B2, “Dihydro-benzo-oxazine and dihydro-pyrido-oxazine derivatives” (Novartis AG, priority 2012, dated 2017)
